Experimental data taken from patent US20260345543A1, “Bridged Bicyclic Compounds and their Derivatives as Antiepileptic Agents and Methods of Use Thereof” (Florida Atlantic University Board of Trustees, priority 2022, published 2026).

What was measured:
[1] = tested on: C. elegans (N2 worms); assay: C. elegans electroshock seizure assay (recovery time; with or without PTZ); assay type: in vivo; settings: 3 mM (3000 μM); with PTZ; control AED
Description: FIG. 2 is a graph showing recovery time (seconds) for N2 worms (vertical axis) in the presence of M9 or pentylenetetrazol (PTZ) (first two bars). In other experiments, PTZ is combined with either an RVM or sodium valproate.
FIG. 3 left is the structure of RVM-3, and FIG. 3 right is a graph showing recovery time (seconds) for N2 worms (vertical axis) in the presence of M9 or PTZ (first two bars). In other experiments, PTZ is combined with RVM-3 at varying concentrations or sodium valproate.
The structures of these RVMs are comprised of an all-carbon bridged bicyclic scaffold that is fully saturated, a motif that is without precedent in the AED literature. […] It is expected that a pharmacological intervention based on RVMs will provide relief from epileptic events at low dosages.
The C. elegans seizure assay includes placing L4 C. elegans into a small tube that is capped on both sides by copper wires. A shock of 47 V for three seconds is then administered. […] Recovery is recorded when the animals present with coordinated three sinusoidal movements, which is then characterized as normal swimming activity. […]
This C. elegans assay offers a new model for the evaluation of electroconvulsive seizures (FIG. 4). […] Recovery is recorded when the animals present with three sinusoidal movements, which is then characterized as normal swimming activity. […]

[2] = tested on: unc-25 and unc-49 loss of function mutant C. elegans; settings: unc-25 and unc-49 mutants; concentration not given; cited from earlier work
[3] = tested on: C. elegans (N2 worms); settings: effect of PTZ application; concentration not given; cited from earlier work

Structure (SMILES)	restoration of recovery time [1]	sensitivity to electroshock when mutants are treated with antiepileptic drugs [2]	seizure-like phenotypes seen in C. elegans [3]	sensitivity to electroshock when mutants are additionally treated with PTZ [2]
CCCC(CCC)C(=O)[O-].[Na+] [Sodium valproate, sodium valproate]	relatively modest restoration of recovery time	increased sensitivity is rescued		
CC[C@@H](C(N)=O)N1CCCC1=O [Keppra, levetiracetam]		increased sensitivity is rescued		
C1CCc2nnnn2CC1 [PTZ, Pentylenetetrazole]			enhances the seizure-like phenotypes	sensitivity to electroshock is increased
CCOC(=O)Nc1ccc(NCc2ccc(F)cc2)cc1N [Retigabine]		increased sensitivity is rescued		
